What was measured:
MK-801-treated rodents [1] = assay: Passive avoidance task in MK-801 cognition impairment model; format: in vivo, rodents (mice or rats); details: 5 mg/Kg s.c. 35 min before shock session; MK-801 0.2 mg/kg i.p.; FIG. 2
Method: (§1) The new compounds were evaluated for their efficacy as cognition enhancers in a pharmacological model for cognitive impairment. The effects of the new compounds were evaluated in untreated and MK-801-treated rodents (mice or rats). MK-801 is a non-competitive antagonist of the N-Methyl-D-aspartate (NMDA) receptor which impairs animal performance in various learning and memory paradigms (Castellano C et al., Curr. Drug Targets 2001; 2:273-83; Riedel G et al., Behav. Brain Res. 2003; 140:1-47). MK-801 also produces various effects on rodent behavior, including deficits in sensory processing, hypermotility, stereotypy and ataxia. […]
For the evaluation of the passive avoidance task, a two-compartment box with a light compartment and a dark compartment of the same dimensions was used. […] In the evaluation session, the time which the animal takes to enter the dark compartment (in seconds) was measured, as a sign of memory retention of the shock received in the dark compartment during the previous session. […] The corresponding evaluated compound was injected s.c. 35 min before the shock session, followed 15 minutes later by i.p. injection of MK-801, or PBS in the case of the control, in the same doses and volume as described for the object recognition test.

[2] = Parallel artificial membrane permeability assay (PAMPA); format: in vitro ADME; details: 200 μM initial concentration, pH 7.4, 4 hours, room temperature
Method: Parallel artificial membrane permeability assay (PAMPA) described in Kansy M et al., J. Med. Chem. 1998; 41(7):1007-10 was used to determine the capacity of compounds to cross the Blood-Brain Barrier (BBB) by passive diffusion (Di L et al., Eur. J. Med. Chem. 2003; 38(3):223-32). The effective permeability (Pe) of the compounds was measured at an initial concentration of 200 μM. The buffer solution was prepared from a commercial concentrated one following the manufacturer's instructions. pH was adjusted to 7.4 using a 0.5 M NaOH solution. A stock solution of new compound was prepared in DMSO and diluted with buffer solution to a final 200 μM concentration (0.5% DMSO content). The PAMPA sandwich was separated and each donor well was filled with 200 μL of the compound solution. The acceptor plate was placed into the donor plate, ensuring that the underside of the membrane was in contact with buffer. 4 μL of the mixture of phospholipids (20 mg/mL) in dodecane was added to the filter of each well, and 200 μL of buffer solution was added to the each acceptor well. The plate was covered and incubated at room temperature in a saturated humidity atmosphere for 4 hours under orbital agitation at 100 rpm. After 4 hours, the contents of the acceptor and donor compartments were analyzed by HPLC: 150 μL of each well from the donor plate and 150 μL of each well from the acceptor plate were transferred to HPLC vials, injecting each sample into a reverse-phase C18 column (150 mm×4.6 mm×5 μm, 100 Å) (100 μL/injection from the acceptor wells, 10 μL/injection from the donor wells and for t0 references). Transport was also confirmed by MALDI-TOF spectrometry.
The phospholipid mixture used was a porcine polar brain lipid extract, provided by Avanti polar lipids, with the following composition: 12.6% phosphatidylcholine (PC), 33.1% phosphatidylethanolamine (PE), 18.5% phosphatidylserine (PS), 4.1% phosphatidylinositol (PI), 0.8% phosphatidic acid and 30.9% of other compounds.
The effective permeability (Pe) after 4 hours was calculated using equation 2 and the percentage of transport was calculated using equation 3:
[formula] wherein: t is time (h) CA(t) is the compound concentration in the acceptor well at time t and CD(to) is the compound concentration in the donor well at to.

MK-801-treated rodents [3] = assay: Novel object recognition (NOR) task in MK-801 cognition impairment model; format: in vivo, rodents (mice or rats); details: 5 mg/Kg s.c.; MK-801 0.2 mg/kg i.p.; FIG. 1
Method: as §1
The novel object recognition (NOR) task is based on the natural preference of rodents to explore novel objects (Ennaceur A et al., Behav. Brain Res. 1988; 31:47-59). […] The animals were then allowed to explore freely for 10 min, and the time spent exploring each object was recorded. […] An index of discrimination was calculated as follows: time spent exploring the new object minus time spent exploring the old object, divided by the total time exploring both objects, and multiplied by 100. […]

## COc1cc(C(=O)N2CC(F)(F)C[C@H]2C(=O)N2CCC[C@H]2C#N)cc(OC)c1OCc1ccccc1 [Example 4, (S)-1-((2S)-1-(4-(benzyloxy)-3,5-dimethoxybenzoyl)-4,4-difluoropyrrolidine-2-carbonyl)pyrrolidine-2-carbonitrile]
MK-801-treated rodents [1]
  Reversal of MK-801-induced memory impairment in the passive avoidance test (latency to enter dark compartment): able to reverse MK-801-induced memory impairment
[2]
  % T (percentage of transport): 29.92%
[2]; PAMPA, read-out: Effective permeability Pe
  Papp at 4 h, 200 μM: 22.1 ×10⁻⁶ cm/s
MK-801-treated rodents [3]
  Reversal of MK-801-induced memory impairment in the NOR test: able to reverse MK-801-induced memory impairment

— patent US10125097B2, “1- [1-(benzoyl)-pyrrolidine-2-carbonyl]-pyrrolidine-2-carbonitrile derivatives” (UNIVERSITAT DE BARCELONA, priority 2012, dated 2018)
